Measurements from US20260042754A1, “Substituted Bicyclic Heteroaryl Sulfonamide Derivatives for the Treatment of Cancer” (NODUS ONCOLOGY LIMITED, priority 2022, published 2026).
Read-outs that look alike come from different tables or passages of the source.

Legend:
[1] = molecular target: Recombinant His-tagged human PARG protein (Homo sapiens (Human), UniProt Q86W56); test: PARG enzymatic assay (TFMU-ADPr fluorescence); assay type: biochemical; conditions: 1 nM enzyme, 200 μM TFMU-ADPr, read after 30 minutes
In short: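 Sf21-expressed His-tagged human PARG (1 nM) preincubated 15 min with compound (8-point series, 0.5% DMSO) in pH 7.4 phosphate/KCl/β-mercaptoethanol buffer, then 200 μM TFMU-ADPr added. Fluorescence (ex 380/em 535 nm) read after 30 min; IC50 from 4-parameter logistic fit, no-enzyme control as bottom.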

[2] = test system: TOV-112D endometrioid adenocarcinoma ovarian cancer cell line; test: Cell proliferation assay (CellTiter-Glo), TOV-112D; assay type: cell-based; conditions: 96-well, 5000 cells per well, 120 hours, highest concentration tested 9000 nM, off-target readout, read-out: TOV-112D GI50 (low PARG dependency)
Method: For Examples 1-11, RMUG-S mucinous cystadenocarcinoma (JCRB, #IF050320) and TOV-112D endometrioid adenocarcinoma (ATCC, #CRL-11731) ovarian cancer cell lines were grown in DMEM/F-12 with glutamine (BioConcept, #1-26F09-I) and RPMI with glutamine (BioConcept, #1-41F03-1), respectively, and both media containing 10% FBS (Sigma-Aldrich, #F9665) and supplemented with 1% Penicillin-Streptomycin (BioConcept, #4-01F00-H) using standard cell culture techniques. RMUG-S and TOV-112D ovarian cancer cell lines were selected as highly PARG dependent and having low PARG dependency, respectively, based on their publically available PARG shRNA (short hairpin ribonucleic acid) dropout profiles in the Cancer Dependency Map (DepMap) data portal (Broad Institute DepMap Project; Cheung H W et al, Proceedings of the National Academy of Sciences 2011; Cowley G S et al, Scientific Data 2014; McDonald E R et al, Cell 2017). PARG dependency of these cell lines was independently verified and confirmed by genetic and pharmacological means using shRNA-mediated PARG depletion, and the previously reported cell-permeable quinazolinedione PARG inhibitor tool compound PDD00017273 (Pillay N et al, Cancer Cell 2019). Thus, growth inhibition of the RMUG-S cell line serves as a functional on-target inhibition readout, while observing potent growth inhibition of TOV-112D is indicative of compound off-target activity. Cells were seeded in 96-well plates with clear bottom (Huberlab, #7.655 090) at a seeding density of 5000 cells per well in 100 μL of medium, and the plates were incubated overnight at 37° C. with 5% CO2 prior to treatment with compounds. Experimental compounds were prepared in DMSO at a concentration of 10 mM. Compounds were distributed at the desired final concentrations using the Tecan D300e Digital Dispenser (TECAN) and normalized to the highest DMSO volume. The plates were incubated for 120 hours and cell numbers were then measured using CellTiter-Glo® (Promega, #G9241), essentially as recommended by the manufacturer. Briefly, for the CellTiter-Glo® proliferation readout, 50 μL of the reconstituted CellTiter-Glo® 2.0 Reagent were added to 100 μL of medium containing cells. The plates were incubated at room temperature for 10 minutes to stabilize the luminescent signal, and luminescence intensity signals were then measured with a Synergy 4™ microplate reader (BioTek Instruments). Relative proliferation values were calculated by normalizing the raw data using DMSO-treated cells (100% proliferation) and the signals obtained from cells that were evaluated at the time of compound addition (0% proliferation). The concentration-response data were fitted to a sigmoidal 4-parameter logistic model with the maximum constrained to 100%. GI50 values were calculated from the curves as the compound concentrations reducing proliferation to 50%.

Sequence of Recombinant His-tagged human PARG protein (Q86W56 whole entry): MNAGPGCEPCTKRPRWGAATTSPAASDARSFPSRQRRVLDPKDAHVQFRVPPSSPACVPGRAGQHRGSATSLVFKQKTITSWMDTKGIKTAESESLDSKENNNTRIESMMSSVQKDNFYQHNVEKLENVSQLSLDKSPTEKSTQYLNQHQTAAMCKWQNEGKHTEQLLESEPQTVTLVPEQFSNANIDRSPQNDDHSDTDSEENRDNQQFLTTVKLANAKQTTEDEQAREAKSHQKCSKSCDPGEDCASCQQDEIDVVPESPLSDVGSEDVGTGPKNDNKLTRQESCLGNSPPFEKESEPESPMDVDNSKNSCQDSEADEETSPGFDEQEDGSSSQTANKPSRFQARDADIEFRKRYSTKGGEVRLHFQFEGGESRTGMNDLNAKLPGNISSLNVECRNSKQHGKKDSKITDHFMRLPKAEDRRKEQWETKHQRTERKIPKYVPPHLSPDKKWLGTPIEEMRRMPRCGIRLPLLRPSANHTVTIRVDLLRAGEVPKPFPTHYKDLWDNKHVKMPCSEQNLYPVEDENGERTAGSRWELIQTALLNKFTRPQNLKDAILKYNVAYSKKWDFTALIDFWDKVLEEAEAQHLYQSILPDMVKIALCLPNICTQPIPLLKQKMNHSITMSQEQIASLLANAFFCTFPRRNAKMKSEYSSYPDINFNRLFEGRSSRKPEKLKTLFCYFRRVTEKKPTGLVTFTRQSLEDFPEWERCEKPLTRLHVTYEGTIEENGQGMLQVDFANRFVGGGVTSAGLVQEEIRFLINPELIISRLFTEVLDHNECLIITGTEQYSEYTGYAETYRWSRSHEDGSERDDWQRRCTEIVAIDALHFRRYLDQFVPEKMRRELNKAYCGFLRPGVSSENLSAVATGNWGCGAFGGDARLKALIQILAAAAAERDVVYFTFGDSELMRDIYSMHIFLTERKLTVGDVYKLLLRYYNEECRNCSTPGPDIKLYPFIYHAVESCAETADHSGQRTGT

**Q.** For `CO/N=c1\[nH]c2ccc(S(=O)(=O)NC3(C)COC3)cc2c(=O)n1Cc1cnn(C)c1` [Example 2, 2-methoxyimino-N-(3-methyloxetan-3-yl)-3-[(1-methylpyrazol-4-yl)methyl]-4-oxo-1H-quinazoline-6-sulfonamide], which IC50 [1] is on record?
**A.** Its IC50 is 30 to 99 nM.

**Q.** And the GI50 ([2]; Homo sapiens, TOV112D)?
**A.** The GI50 was ≥ 9000 nM.

**Q.** For `Cc1nc(C)c(CO/N=c2\[nH]c3ccc(S(=O)(=O)NC4(C)CC4)cc3c(=O)n2Cc2cnn(C)c2)s1` [Example 3, 2-[(2,4-dimethylthiazol-5-yl)methoxyimino]-N-(1-methylcyclopropyl)-3-[(1-methylpyrazol-4-yl)methyl]-4-oxo-1H-quinazoline-6-sulfonamide], which IC50 [1] is on record?
**A.** The IC50 was < 30 nM.

**Q.** And the GI50 ([2]; Homo sapiens, TOV112D)?
**A.** The GI50 was ≥ 9000 nM.

**Q.** `CO/N=c1\[nH]c2c(-c3ccc(C(=O)N(C)C)cc3)cc(S(=O)(=O)NC3(C)CC3)cc2c(=O)n1Cc1cnn(C)c1` [Example 5, 4-[2-methoxyimino-6-[(1-methylcyclopropyl)sulfamoyl]-3-[(1-methylpyrazol-4-yl)methyl]-4-oxo-1H-quinazolin-8-yl]-N,N-dimethyl-benzamide] was tested. Which IC50 [1] did it give?
**A.** The IC50 was < 30 nM.

**Q.** What about the GI50 ([2]; Homo sapiens, TOV112D) of the same compound?
**A.** The GI50 was ≥ 9000 nM.

**Q.** How did the IC50 [1] turn out when `CO/N=c1\[nH]c2c(N3CCN[C@H](C)C3)cc(S(=O)(=O)NC3(C)CC3)cc2c(=O)n1Cc1cnn(C)c1` [Example 7, 2-methoxyimino-N-(1-methylcyclopropyl)-3-[(1-methylpyrazol-4-yl)methyl]-4-oxo-8-[(3R)-3-methylpiperazin-1-yl]-1H-quinazoline-6-sulfonamide] was run?
**A.** The IC50 was < 30 nM.

**Q.** And the GI50 ([2]; Homo sapiens, TOV112D)?
**A.** Its GI50 is ≥ 9000 nM.

**Q.** Which IC50 [1] does the source give for `CON=c1[nH]c2c(N3CCN(C(=O)C4(C)CC4)[C@H](C)C3)cc(S(=O)(=O)NC3(C)CC3)cc2c(=O)n1Cc1cnn(C)c1` [Example 8, 2-methoxyimino-N-(1-methylcyclopropyl)-3-[(1-methylpyrazol-4-yl)methyl]-4-oxo-8-[(3R)-3-methyl-4-(1-methylcyclopropanecarbonyl)piperazin-1-yl]-1H-quinazoline-6-sulfonamide] here?
**A.** Its IC50 is < 30 nM.

**Q.** And the GI50 [2]?
**A.** The GI50 was 500 to 2000 nM.

**Q.** For `CO/N=c1\[nH]c2ccc(S(=O)(=O)NC3(C)CC3)cc2c(=O)n1Cc1cnc(C)s1` [Example 1, 2-methoxyimino-N-(1-methylcyclopropyl)-3-[(2-methylthiazol-5-yl)methyl]-4-oxo-1H-quinazoline-6-sulfonamide], which IC50 [1] is on record?
**A.** Its IC50 is < 30 nM.

**Q.** And the GI50 ([2]; Homo sapiens, TOV112D)?
**A.** The GI50 was ≥ 9000 nM.
